Article PMC11524579, “PRR adjuvants restrain high stability peptides presentation on APCs” (eLife, 2024)

Assays:
[1] = system: CD4+ T-cells; assay: IFN-γ ICS screen of UreB overlapping 18mer peptides on T-cells from adjuvant-vaccinated mice; assay type: cell-based, BALB/c mice; details: spleens day 10, expanded in vitro, 5 μM peptide 5 hr, ICS flow cytometry; for IFN-γ response of CD4+ T-cells to UreB 18mer peptides, MDP group: T-cells from mice vaccinated with UreB + MDP; for IFN-γ response of CD4+ T-cells to UreB 18mer peptides, MDP group / IFN-γ response of CD4+ T-cells to UreB 18mer peptides, MPLA group / IFN-γ response of CD4+ T-cells to UreB 18mer peptides, CpG group: representative of three independent experiments; for IFN-γ response of CD4+ T-cells to UreB 18mer peptides, MPLA group: T-cells from mice vaccinated with UreB + MPLA; for IFN-γ response of CD4+ T-cells to UreB 18mer peptides, CpG group: T-cells from mice vaccinated with UreB + CpG
Experimental: (§1) Six- to eight-week-old SPF female BALB/c mice were immunized subcutaneously with 100 μg recombinant H pylori UreB (rUreB, purity >95%) emulsified in adjuvants CpG (20 μg/ mouse), MDP (30 μg/ mouse), and MPLA (10 μg/ mouse). Mice immunized with the same antigen without adjuvants were used as controls. Ten days later, the mice were euthanized with Carbon Dioxide (CO₂), and their spleens were harvested. Antigen-specific T-cells were expanded in vitro as described previously ([Li et al., 2015]). Briefly, the lymphocytes from spleens were isolated using a Ficoll–Hypaque (Dakewe, Shanghai, China) gradient, pulsed with 0.5 μM rUreB protein in the presence of 5 U/mL rmIL-2 (PeproTech, NJ, USA), and in vitro cultured in ‘RF-10’ medium consisting of RPMI 1640 (Gibco, CA, USA) supplemented with 10% fetal calf serum (Gibco), 1% L-glutamine, 1x 2-mercaptoethanol (Gibco), and 100 U/mL penicillin/ streptomycin. On day 5, the live cells were collected using a Ficoll–Hypaque gradient and cultured in a complete medium containing 20 U/mL rmIL-2. Half the medium was replaced when required.
Bulk-cultured T-cells were stimulated with 5 μM peptides for 5 hr in the presence of brefeldin A (BioLegend). The cells were collected and stained with specific antibodies against surface markers. Intracellular cytokine staining was performed after fixation. Cells were acquired using an LSRFortessa Flow Cytometer (BD Biosciences) or a Navios Flow Cytometer (Beckman Coulter, FL, USA). The data were analyzed using FlowJo software (Tree Star, CA, USA).

[2] = system: splenocytes; assay: IFN-γ ELISpot of splenocytes from peptide-pool immunized mice; assay type: in vivo; details: five BALB/c mice immunized with pool of 10 peptides (50 μg each) in CFA; for IFN-γ ELISpot response, day 10 (effective phase): threshold 3x median of OVA peptide
Experimental: Six- to eight-week-old SPF female BALB/c mice were immunized subcutaneously with a pool of synthetic peptides (50 μg for each peptide) emulsified in Complete Freunds Adjuvant (Sigma-Aldrich). At 10 and 28 days post-vaccination, the mice were euthanized, and the spleens were removed for ELISpot assays.
Splenocytes (500,000 cells/well) were treated with red blood cell lysis buffer and stimulated with 5 μM peptides in triplicate in ELISpot plates (Dakewe Biotech, Shenzhen, China) for 18 hr. IFN-γ secretion was detected using capture and detection antibodies and imaged using an ELISpot & FluoroSpot Reader (Mabtech, Stockholm, Sweden). OVA peptide323–339 (ISQAVHAAHAEINEAGR) and non-stimulated wells were used as negative controls. PMA (BioGems, NJ, USA) was used as a positive control.

[3] = system: MHC-II H2-IA allele; assay: MHC-II competition-binding assay in vitro; details: competition with 0.1 μM biotin-labeled control peptide, 50 nM purified MHC-II, 37 °C 24 hr, europium fluorescence; eight concentrations, three independent experiments
[4] = system: A20 cells; assay: Whole-proteome LC-MS/MS of adjuvant-treated APCs, bacterial protein abundance; assay type: cell-based, Mus musculus; details: A20 cells 12 hr post-adjuvant stimulation with H. pylori antigens
Experimental: (§2) A20 cells were cultured in T75 cell culture flasks (Corning, NY, USA). The expanded cells were pulsed with H. pylori lysates in combination with adjuvants MPLA, MDP, or CpG for 12 hr, collected, washed twice with sterile PBS, and divided into two fractions. One fraction, approximately 10^7 cells, was used for whole-proteome analysis. The remaining 10^8 cells were lysed in cold lysis buffer (1.0% w/v CHAPS, Protease Inhibitor tablet, and PMSF) for MHC-II complex immunoprecipitation. The cell lysates were centrifuged at 18,000×g for 20 min. The supernatant (containing the MHC–peptide complexes) was transferred into a new 1.5 mL microcentrifuge tube (Corning) containing a mixture of Sepharose CNBr-activated beads (Cytivia, Utah, USA) and 2 mg Anti-Mouse H2-IA^d/IE^d (M5/114) antibody (BioXcell, NH, USA). The immune complexes were captured on the beads by incubating on a rotor at 4℃ for 18 hr. Sequentially, the immune complexes were transferred to a polypropylene column (Bio-Rad Laboratories, Hercules, CA, USA) and washed with 10 mL buffer A (150 mM NaCl, 20 mM Tris, pH 8.0), 10 mL buffer B (400 mM NaCl, 20 mM Tris, pH 8.0), 10 mL buffer A, and 10 mL buffer C (Tris 20 mM, pH 8.0). The MHC-II–peptide complexes were eluted with 300 µL 10% glacial acetic acid (Macklin, Shanghai, China) three times. The eluate was stored at −80℃ until mass spectrometry analysis was performed.
Protein aliquots were mixed with 200 μL 8 M urea in Nanosep Centrifugal Devices (PALL) and centrifuged at 12,000×g at 20℃ for 20 min. All the centrifugation steps were performed under the same conditions, allowing for maximal concentration. Then, 200 μL 8 M urea solution with 10 mM DTT was added, and the reduction reaction was performed for 2 hr at 37°C. The solution was removed by centrifugation and 200 μL 8 M urea solution with 50 mM iodoacetamide (IAA) was added. The samples were incubated in the dark for 15 min at room temperature. The ultra-fraction tube was washed with 200 μL 8 M urea three times and 200 μL 25 mM ammonium bicarbonate three times by centrifugation at 12,000×g for 20 min at room temperature. […]

[5] = system: A20 cells; assay: MHC-II immunopeptidome (LC-MS/MS) of adjuvant-treated APCs; assay type: cell-based, Mus musculus
Experimental: as §2, with “performed. […]” for “performed.”

[6] = system: CD4+ T-cells; assay: IFN-γ ICS of in vitro expanded peptide-specific CD4+ T-cells, peptide pool and titrated peptides; assay type: cell-based, BALB/c mice; details: titrated peptides, response at 50 μM taken as 100%, n=3, ICS flow cytometry; compared with ureA #2 and ureA #3
Experimental: as §1
Bulk-cultured T-cells were stimulated with 5 μM peptides for 5 hr in the presence of brefeldin A (BioLegend). The cells were collected and stained with specific antibodies against surface markers. […] The data were analyzed using FlowJo software (Tree Star, CA, USA). […]

U481–U504: UreB dominant region covered by overlapping 18mer peptides (HHGKAKYDANITFVSQAAYDKGIK; UniProt P69996 481-504, looked up, fragment)
IFN-γ response of CD4+ T-cells to UreB 18mer peptides, no-adjuvant group ([1]; T-cells from mice vaccinated with UreB without adjuvant): dominant region

ASMIHEVGIEAMFPDGTK [ureA #2]
IFN-γ ELISpot response, day 10 (effective phase) [2]: positive responses | Binding stability for MHC-II [3]: highly stable

CC(=O)N[C@@H]1[C@@H](O[C@H](C)C(=O)N[C@@H](C)C(=O)N[C@H](CCC(=O)O)C(N)=O)[C@H](O)[C@@H](CO)O[C@H]1O [MDP]
% H. pylori: percentage of bacterial protein abundances in the total whole proteome ([4]; sample (replicate) 1): 0.95% | % H. pylori: percentage of bacterial protein abundances in the total whole proteome ([4]; sample (replicate) 2): 1.04% | % H. pylori: percentage of bacterial protein abundances in the total whole proteome ([4]; sample (replicate) 3): 1.09% | Number of MHC peptides identified ([5]; A20 cells treated with adjuvant + H. pylori antigens 12 hr, 10^8 cells, MHC-II IP, LC-MS/MS, mean of n=3 biological replicates): 3257 | Effect of adjuvant on peptide repertoires presented by APCs ([5]; A20 cells, H. pylori antigens + adjuvant 12 hr, immunopeptidome): not

U409–426: UreB overlapping 18mer peptide (YTINPAIAHGISEYVGSV; UniProt P69996 409-426, looked up, fragment)
IFN-γ response of CD4+ T-cells to UreB 18mer peptides, MDP group [1]: dominant response

U505–522: UreB overlapping 18mer peptide (EELGLERQVLPVKNCRNI; UniProt P69996 505-522, looked up, fragment)
IFN-γ response of CD4+ T-cells to UreB 18mer peptides, MPLA group [1]: primarily recognized

U313–330: UreB overlapping 18mer peptide (EHMDMLMVCHHLDKSIKE; UniProt P69996 313-330, looked up, fragment)
IFN-γ response of CD4+ T-cells to UreB 18mer peptides, CpG group [1]: dominant response | IFN-γ response of CD4+ T-cells to UreB 18mer peptides, MPLA group [1]: primarily recognized

U481–498: UreB overlapping 18mer peptide (HHGKAKYDANITFVSQAA; UniProt P69996 481-498, looked up, fragment)
IFN-γ response of CD4+ T-cells to UreB 18mer peptides, MDP group [1]: dominant response

U403–426: UreB region covered by overlapping 18mer peptides (KRYLSKYTINPAIAHGISEYVGSV; UniProt P69996 403-426, looked up, fragment)
IFN-γ response of CD4+ T-cells to UreB 18mer peptides, CpG group [1]: dominant response

YVEAVALISAHIMEEAR [ureA #3]
IFN-γ ELISpot response, day 10 (effective phase) [2]: positive responses | Binding stability for MHC-II [3]: highly stable

AFIDAEHALDVHYAKR [recA #23]
IFN-γ ELISpot response, day 28 (memory phase) [2]: not weaker than that of the other peptides | IFN-γ ELISpot response, day 10 (effective phase) [2]: positive responses | Binding stability for MHC-II [3]: low-stability | IFN-γ response of expanded CD4+ T-cells to titrated peptide [6]: more robust CD4^+ T-cell responses at lower peptide concentrations

KMLELANQIKTNLSAIPQ [hopZ #53]
IFN-γ ELISpot response, day 10 (effective phase) [2]: positive responses | Binding stability for MHC-II [3]: highly stable
